Reference: US10633389B2, “CARM1 inhibitors and uses thereof” (Epizyme, Inc., priority 2013, dated 2020)

Assays:
[1] = target: human CARM1 (PRMT4) (Homo sapiens (Human), UniProt Q86X55); experiment: CARM1 enzyme assay on peptide substrate (3H-SAM Flashplate); settings: Biochemical potencies, read-out: Biochem IC50
Description: S-adenosylmethionine (SAM), S-adenosylhomocysteine (SAH), bicine, Tween20, dimethylsulfoxide (DMSO), bovine skin gelatin (BSG), sodium butyrate and Tris(2-carboxyethyl)phosphine hydrochloride solution (TCEP) were purchased from Sigma-Aldrich at the highest level of purity possible. ^3H-SAM was purchase from American Radiolabeled Chemicals with a specific activity of 80 Ci/mmol. 384-well streptavidin Flashplates were purchased from PerkinElmer.
Peptide representative of human histone H3 residues 16-30 was synthesized with an N-terminal linker-affinity tag motif and a C-terminal amide cap by 21st Century Biochemicals. […] The sequence was Biot-Ahx-[…]-amide and contained a monomethylated arginine at position 26 (SEQ ID NO.:1).
The gene sequence encoding isoform 1 containing a deletion of amino acids 539-561 was amplified subsequently and subcloned into pFastBacMam (Viva Biotech).
Recombinant baculovirus were generated according to Bac-to-Bac kit instructions (Life Technologies). Protein over-expression was accomplished by infecting exponentially growing HEK 293F cell culture at 1.3×10^6 cell/ml with virus (MOI=10) in the presence of 8 mM sodium butyrate. Infections were carried out at 37° C. for 48 hours, harvested by centrifugation, and stored at −80° C. for purification.
Expressed full-length human Flag- and His-tagged CARM1 protein was purified from cell paste by anti-flag M2 affinity chromatography with resin equilibrated with buffer containing 20 mM Tris, 150 mM NaC, 5% glycerol, pH 7.8. Column was washed with 500 mM NaCl in buffer A and Flag-CARM1-His was eluted with 200 ug/ml FLAG peptide in buffer A. Pooled fractions were dialyzed in 20 mM Tris, 150 mM NaCl, 5% glycerol and 1 mM DTT, pH 7.8.
The assays were all performed in a buffer consisting of 20 mM Bicine (pH=7.6), 1 mM TCEP, 0.005% BSG, and 0.002% Tween 20, prepared on the day of use. Compounds in 100% DMSO (1 ul) were spotted into a polypropylene 384-well V-bottom plates (Greiner) using a Platemate Plus outfitted with a 384-channel head (Thermo Scientific). DMSO (1 ul) was added to Columns 11, 12, 23, 24, rows A-H for the maximum signal control and 1 ul of SAH, a known product and inhibitor of CARM1, was added to columns 11, 12, 23, 24, rows I-P for the minimum signal control. A cocktail (40 ul) containing the CARM1 enzyme was added by Multidrop Combi (Thermo-Fisher). The compounds were allowed to incubate with CARM1 for 30 min at room temperature, then a cocktail (10 ul) containing ^3H-SAM and peptide was added to initiate the reaction (final volume=51 ul). The final concentrations of the components were as follows: CARM1 was 0.25 nM, ^3H-SAM was 30 nM, peptide was 250 nM, SAH in the minimum signal control wells was 1 mM, and the DMSO concentration was 2%. The assays were stopped by the addition of non-radiolabeled SAM (10 ul) to a final concentration of 300 uM, which dilutes the ^3H-SAM to a level where its incorporation into the peptide substrate is no longer detectable. 50 ul of the reaction in the 384-well polypropylene plate was then transferred to a 384-well Flashplate and the biotinylated peptides were allowed to bind to the streptavidin surface for at least 1 hour before being washed once with 0.1% Tween20 in a Biotek ELx405 plate washer. The plates were then read in a PerkinElmer TopCount plate reader to measure the quantity of ^3H-labeled peptide bound to the Flashplate surface, measured as disintegrations per minute (dpm) or alternatively, referred to as counts per minute (cpm).
The Hill Coefficient normally allowed to float but may also be fixed at 1 in a 3-parameter fit.

[2] = test system: asymmetric di-methyl PABP1 in RKO cells; experiment: RKO methylation assay, In Cell Western (ICW) for asymmetric di-methyl PABP1; assay type: cell-based; settings: Homo sapiens, RKO, Cellular potencies, ICW PABP1me2a
In short: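 RKO cells treated with compound for 48 h at 37 °C, then fixed, permeabilized and immunostained for asymmetric di-methyl PABP1, with DRAQ5 as DNA stain. Infrared 700/800 nm signal ratio normalized to DMSO and 20 μM reference-compound controls; IC50 from triplicate wells.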

Sequence of human CARM1 (PRMT4) (Q86X55 other isoform, or with tags, fused parts or gaps isoform Q86X55-1): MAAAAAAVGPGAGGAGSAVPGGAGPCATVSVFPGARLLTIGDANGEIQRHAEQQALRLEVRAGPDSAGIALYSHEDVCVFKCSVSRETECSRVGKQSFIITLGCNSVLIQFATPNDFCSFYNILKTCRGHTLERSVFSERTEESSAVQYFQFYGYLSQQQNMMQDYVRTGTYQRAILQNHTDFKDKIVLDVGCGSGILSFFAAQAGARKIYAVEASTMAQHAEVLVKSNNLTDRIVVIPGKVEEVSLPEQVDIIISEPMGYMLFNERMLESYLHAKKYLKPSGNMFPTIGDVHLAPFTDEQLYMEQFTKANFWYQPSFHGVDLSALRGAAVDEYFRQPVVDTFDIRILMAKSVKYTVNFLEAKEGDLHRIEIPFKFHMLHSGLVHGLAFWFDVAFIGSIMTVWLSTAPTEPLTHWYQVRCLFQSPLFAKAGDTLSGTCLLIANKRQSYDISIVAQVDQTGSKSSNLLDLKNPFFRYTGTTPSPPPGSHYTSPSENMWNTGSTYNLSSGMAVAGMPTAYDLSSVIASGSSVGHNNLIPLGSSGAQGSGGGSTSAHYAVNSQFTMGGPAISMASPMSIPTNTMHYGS

SMILES | IC50 [1] [µM] | IC50 [2] [µM]
CNCC(O)COc1cccc(-c2nc(NC3CCOC3)c(C)c(N3CCC(O)(CCO)CC3)n2)c1 (stereo not drawn) [Example 399-1a] | 0.1 to 1 | 10 to 20
CNCC(O)COc1ccc(C)c(-c2nc(NC3CCOCC3)c(C)c(-c3c(C)noc3C)n2)c1 (stereo not drawn) [Example 123-3] | 0.1 to 1 | 10 to 20
CNCC(O)COc1cccc(-c2nc(N[C@@H]3CCOC3)c(C)c(C(=O)NCC3CCOCC3)n2)c1 (stereo partly drawn) [Example 346-1a] | 0.1 to 1 | 10 to 20
CNCC(O)COc1cccc(-c2nc(NC3CCOCC3)c(C)c(-c3c(C)noc3C)n2)c1Cl (stereo not drawn) [Example 79-3] | 3 to 10 | ≥ 20
CCNc1nc(-c2cccc(OCC(O)CNC)c2)nc(NC2CCOCC2)c1C (stereo not drawn) [Example 676-1a] | 1 to 3 | ≥ 20
CNCC(O)COc1cccc(-c2nc(N3CCC4(CCOC4)CC3)cc(N(C)C3CCOCC3)n2)c1 (stereo not drawn) [Example 582-1a] | 0.1 to 1 | 10 to 20
CNCC(O)COc1cccc(-c2nc(NC3COC3)cc(-c3c(C)noc3C)n2)c1 (stereo not drawn) [Example 22-1a] | 0.1 to 1 | 10 to 20
CNCC(O)COc1cccc(-c2nc(NC3CCN(C(=O)OC)CC3)c(C)c(-c3c(C)noc3C)n2)c1Cl (stereo not drawn) [Example 107-3] | 3 to 10 | ≥ 20
CNCC(O)COc1cccc(-c2nc(N3CCN(C(C)=O)C4(CC4)C3)cc(N(C)C3CCOCC3)n2)c1 (stereo not drawn) [Example 523-1a] | 0.1 to 1 | 5 to 10
CNCC(O)COc1cccc(-c2nc(N[C@@H]3CCOC3)c(C)c(N3CCNC(C(F)(F)F)C3)n2)c1 (stereo partly drawn) [Example 428-1a] | 0.1 to 1 | 10 to 20
CCc1c(N[C@@H]2CCOC2)nc(-c2cccc(OCC(O)CNC)c2)nc1N1CCOCC1 (stereo partly drawn) [Example 404-1a] | 0.1 to 1 | 10 to 20
CNCC(O)COc1ccc(C#N)c(-c2nc(NC3CCOCC3)c(C)c(-c3c(C)noc3C)n2)c1 (stereo not drawn) [Example 166-3] | 0.1 to 1 | ≥ 20
CNCC(O)COc1cccc(-c2nc(N[C@@H]3CCOC3)c(C)c(N(CCC#N)C3CC3)n2)c1 (stereo partly drawn) [Example 426-1a] | 0.1 to 1 | 10 to 20
CCS(=O)(=O)N1CCN(c2nc(-c3cccc(OCC(O)CNC)c3)nc(NC3CCOCC3)c2C)CC1 (stereo not drawn) [Example 668-1a] | 0.1 to 1 | ≥ 20
CNCC(O)COc1cccc(-c2nc(N[C@@H]3CCOC3)c(C)c(N3CC[C@H](N(C)C(C)=O)C3)n2)c1 (stereo partly drawn) [Example 430-1a] | 0.1 to 1 | 10 to 20
CNCC(O)COc1cccc(-c2nc(NC3CCOC3)c(C)c(N3CCC4(CCO4)CC3)n2)c1 (stereo not drawn) [Example 400-1a] | 0.1 to 1 | 5 to 10
CNCC(O)COc1cccc(-c2nc(N[C@H]3C[C@@H](O)C3)cc(N(C)C3CCOCC3)n2)c1 (stereo partly drawn) [Example 599-1a] | 0.1 to 1 | 10 to 20
CNCC(O)COc1cc(-c2nc(NC3CCOC(C)C3)c(C)c(-c3c(C)noc3C)n2)ccc1F (stereo not drawn) [Example 51-3] | 0.1 to 1 | ≥ 20
CNCC(O)COc1cccc(-c2nc(-c3c(C)n[nH]c3C)c(C)c(-c3c(C)noc3C)n2)c1 (stereo not drawn) [Example 26-1a] | 1 to 3 | 10 to 20
CNCC(O)COc1cccc(-c2nc(NC3CCOCC3)cc(N(C3CCOCC3)C3CC3)n2)c1 (stereo not drawn) [Example 605-1a] | 1 to 3 | 10 to 20
CNCC(O)COc1cccc(-c2nc(NCCCN3CCCC3=O)cc(-c3cnn(CC(C)C)c3)n2)c1 (stereo not drawn) [Example 635-1a] | 1 to 3 | ≥ 20
CNCC(O)COc1cccc(-c2nc(N3CCOCC3)cc(N(C3CCOCC3)C3CC3)n2)c1 (stereo not drawn) [Example 601-1a] | 0.1 to 1 | 10 to 20
CNCC(O)COc1cccc(-c2nc(N3CCOCC3)cc(N(C3CC3)[C@@H]3CCOC3)n2)c1 (stereo partly drawn) [Example 360-1a] | 0.1 to 1 | 10 to 20

SMILES | IC50 [1] [µM] | IC50 [2] [µM]
CNCC(O)COc1cccc(-c2nc(NC3CCOC3)c(C)c(N3CCC4(CCCO4)CC3)n2)c1 (stereo not drawn) [Example 420-1a] | 0.1 to 1 | 5 to 10
CNCC(O)COc1cccc(-c2nc(-c3nc[nH]c3C)cc(N(C)C3CCOCC3)n2)c1 (stereo not drawn) [Example 603-1a] | 1 to 3 | 10 to 20
CNCC(O)COc1cccc(-c2nc(N[C@H]3CO[C@H]4OCC[C@H]43)cc(N3CCOCC3)n2)c1 (stereo partly drawn) [Example 373-1a] | 0.1 to 1 | 10 to 20
CNCC(O)COc1cccc(-c2nc(N[C@@H]3CCOC3)c(C)c(-c3cnn(CC(F)(F)F)c3)n2)c1 (stereo partly drawn) [Example 414-1a] | 0.1 to 1 | 10 to 20
CNCC(O)COc1cccc(-c2nc(-c3c(C)noc3C)c(C)c(-c3nc(C)cn3C)n2)c1 (stereo not drawn) [Example 130-1a] | 0.1 to 1 | 10 to 20
CNCC(O)COc1cccc(-c2nc(N(C)c3cnc(C(F)(F)F)nc3)cc(N(C)C3CCOCC3)n2)c1 (stereo not drawn) [Example 587-1a] | 0.1 to 1 | 10 to 20
CNCC(O)COc1cccc(-c2nc(Nc3ncc(OC)cn3)cc(N(C)C3CCOCC3)n2)c1 (stereo not drawn) [Example 551-1a] | 0.1 to 1 | 10 to 20
CNCC(O)COc1cccc(-c2nc(-c3c(C)noc3C)c(C)c(N3CCO[C@H](CN(C)C(=O)N(C)C)C3)n2)c1 (stereo partly drawn) [Example 128-1a] | 0.1 to 1 | 5 to 10
CNCC(O)COc1cccc(-c2nc(NC3CCOCC3)cc(-c3ccc(S(C)(=O)=O)cc3)n2)c1 (stereo not drawn) [Example 656-1a] | 0.1 to 1 | ≥ 20
CNCC(O)COc1cccc(-c2nc(-c3c(C)noc3C)c(C)c(-c3c(C)noc3C)n2)c1 (stereo not drawn) [Example 25-1a] | 0.1 to 1 | 10 to 20
CNCC(O)COc1cccc(-c2nc(C3CCN(C(=O)N(C)C)CC3)cc(N(C)C3CCOCC3)n2)c1 (stereo not drawn) [Example 515-1a] | 0.1 to 1 | 5 to 10
CNCC(O)COc1cccc(-c2nc(N[C@@H]3CC[C@H](C(=O)N4CCOCC4)C3)c(C)c(N3CCOCC3)n2)c1 (stereo partly drawn) [Example 681-1a] | 1 to 3 | ≥ 20
CNCC(O)COc1cccc(-c2nc(NCC(F)(F)F)cc(-c3ccc(S(C)(=O)=O)cc3)n2)c1 (stereo not drawn) [Example 627-1a] | 0.1 to 1 | ≥ 20
CNCC(O)COc1cccc(-c2nc(N[C@@H]3CCOC3)c(C)c(N3CCNC(=O)C3)n2)c1 (stereo partly drawn) [Example 380-1a] | 0.1 to 1 | 10 to 20
CCN(c1nc(-c2cccc(OCC(O)CNC)c2)nc(N2CCOCC2)c1C)[C@@H]1CCOC1 (stereo partly drawn) [Example 375-1a] | 1 to 3 | 10 to 20
CNCC(O)COc1cccc(-c2nc(-c3nccn3C)cc(N(C)C3CCOCC3)n2)c1 (stereo not drawn) [Example 583-1a] | 0.1 to 1 | 10 to 20
CNCC(O)COc1cccc(-c2nc(N[C@H]3CCOC3)c(C)c(-c3ccncc3)n2)c1 (stereo partly drawn) [Example 333-1a] | 0.1 to 1 | 10 to 20
CNCC(O)COc1cc(Cl)cc(-c2nc(C(=O)O)cc(N(C)C3CCOCC3)n2)c1 (stereo not drawn) [Example 608-1a] | 3 to 10 | 10 to 20
CNCC(O)COc1cccc(-c2nc(N[C@@H]3CCOC3)c(F)c(N3CCOCC3)n2)c1 (stereo partly drawn) [Example 433-1a] | 0.1 to 1 | 5 to 10
CNCC(O)COc1cccc(-c2nc(NC3CCOCC3)cc(-c3c(C)n[nH]c3C)n2)c1 (stereo not drawn) [Example 670-1a] | 0.1 to 1 | ≥ 20
CNCC(O)COc1cccc(-c2nc(NC3CCNCC3)cc(-c3ccncc3)n2)c1 (stereo not drawn) [Example 666-1a] | 0.1 to 1 | ≥ 20
CNCC(O)COc1cccc(-c2nc(N3CCN(S(C)(=O)=O)[C@@H](C)C3)cc(N(C)C3CCOCC3)n2)c1 (stereo partly drawn) [Example 520-1a] | 0.1 to 1 | 5 to 10
